Key:
[1] = test system: leukemic blasts; assay: Leukemic blast analysis including HLA-DR and c-Kit markers; assay type: cell-based, human
[2] = test system: R132G IDH1 AML cells; assay: Intracellular 2-HG in primary R132G IDH1 AML cells ex vivo; assay type: cell-based, human; conditions: 1.7 μM
[3] = test system: IDH2 R172 U87MG; assay: IDH2 cellular 2-HG assay in R172 U87MG cells; assay type: cell-based; conditions: read-out: IDH2 IC50 R172 U87MG
[4] = test system: R132G IDH1 AML cells; assay: Cell cycle analysis; assay type: cell-based, human; conditions: 3 μM, 7 days
[5] = test system: primary IDH1-mutant human AML cells in NSG mice; assay: Xenotransplantation of primary IDH1 mutant AML cells in NSG mice; assay type: in vivo
[6] = target: T1, IDH2 SW1353 cell 2-HG (Homo sapiens, UniProt P48735, R172S); assay: IDH2 cellular 2-HG assay in SW1353 cells; assay type: cell-based; conditions: read-out: IDH2 IC50 SW1353 cell 2-HG
T1 sequence (P48735 40-452 R172S): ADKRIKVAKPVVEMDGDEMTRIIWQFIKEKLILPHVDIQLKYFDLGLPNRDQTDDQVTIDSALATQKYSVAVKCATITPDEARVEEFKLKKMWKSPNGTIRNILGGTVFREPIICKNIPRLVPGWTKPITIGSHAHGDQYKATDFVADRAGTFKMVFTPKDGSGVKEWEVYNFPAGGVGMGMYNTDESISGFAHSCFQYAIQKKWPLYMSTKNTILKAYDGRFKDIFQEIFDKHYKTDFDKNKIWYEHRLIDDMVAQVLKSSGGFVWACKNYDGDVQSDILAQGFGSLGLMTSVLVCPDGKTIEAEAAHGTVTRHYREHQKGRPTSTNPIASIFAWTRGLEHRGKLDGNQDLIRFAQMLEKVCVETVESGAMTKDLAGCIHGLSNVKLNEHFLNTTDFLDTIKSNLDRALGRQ

[7] = Stability of compounds in media; assay type: physicochemical
[8] = test system: R132C IDH1 AML cells; assay: Cell cycle analysis; assay type: cell-based, human; conditions: 3 μM, 7 days
[9] = test system: R132G IDH1 AML cells; assay: Blast and G/M cell fractions by CD45/SSC flow cytometry; assay type: cell-based, human; conditions: 3 μM, 7 days
[10] = test system: R132G IDH1 mutant AML cells; assay: DNA methylation profiling by ERRBS; assay type: cell-based, human; conditions: q-value < 0.001, methylation difference ≥ 25%
[11] = test system: H3K9me2 in R132C IDH1 expressing HT-1080 cells; assay: Western blot of histone H3K9me2 in HT-1080 cells; assay type: cell-based, human; conditions: 48 hours of treatment
[12] = PAMPA, pH 7.4
[13] = target: homodimeric R132H IDH1 (Homo sapiens, UniProt O75874, R132H); assay: Biochemical mechanism of inhibition analysis; conditions: by analogy with close analog
[14] = target: R132C IDH1 mutant HT-1080 cells (Homo sapiens, UniProt O75874, R132C); assay: Quantification of intracellular 2-HG in HT-1080 cells; assay type: cell-based
[15] = Pharmacokinetic analysis in mouse; assay type: in vivo; conditions: CD-1 mice, IP, 213 mg/kg, up to 24 hours
[16] = target: the molecule itself; assay: SEC

homodimeric R132H IDH1, sequence (O75874 whole entry R132H): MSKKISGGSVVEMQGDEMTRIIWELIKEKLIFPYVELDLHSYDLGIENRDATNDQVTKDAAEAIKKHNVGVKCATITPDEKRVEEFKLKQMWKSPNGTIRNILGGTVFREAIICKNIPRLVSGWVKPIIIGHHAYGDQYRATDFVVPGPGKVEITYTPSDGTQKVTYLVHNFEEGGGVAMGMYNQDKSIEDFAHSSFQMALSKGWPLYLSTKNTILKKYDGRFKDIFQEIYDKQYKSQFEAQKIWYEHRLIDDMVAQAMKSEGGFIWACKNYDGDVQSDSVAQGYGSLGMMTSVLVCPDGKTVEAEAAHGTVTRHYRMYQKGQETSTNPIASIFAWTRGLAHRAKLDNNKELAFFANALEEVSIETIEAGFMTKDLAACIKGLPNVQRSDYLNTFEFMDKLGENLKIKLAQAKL
R132C IDH1 mutant HT-1080 cells, sequence (O75874 whole entry R132C): as the sequence (O75874 whole entry R132H) above, with H132C counted along it
R132C IDH1 mutant HT-1080 cells, sequence (O75874 whole entry partner): as the sequence (O75874 whole entry R132H) above, with H132R counted along it

C[C@H](O)c1cccc(NC(=O)c2nn(Cc3ccc(F)cc3)c3c2CN(C(=O)c2ccc[nH]2)C[C@H]3C)c1 [GSK321, (7R)-1-[(4-fluorophenyl)methyl]-N-{3-[(1S)-1-hydroxyethyl]phenyl}-7-methyl-5-(1H-pyrrol-2-ylcarbonyl)-4,5,6,7-tetrahydro-1H-pyrazolo[4,3c]pyridine-3-carboxamide]
Leukemic blasts, analysis including HLA-DR and c-Kit markers [1]: 0.4 ± 0.2 fold
Inhibition of intracellular 2-HG [2]: 78%
IC50 [3]: 7.94 µM
Cells in G1-phase, R132G IDH1 [4]: 57.9 ± 6.9%
Quiescent (G0)-phase cells, R132G IDH1 [4]: 36.7 ± 4.4%
2HG in IDH1-mutant AML cells of treated mice ([5]; NSG mice): decrease in 2HG
IC50 [6]: 4.69 µM
Stability in media [7]: at least 14 days
Cells in G1-phase, R132C IDH1 [8]: 66.8 ± 12.0%
Quiescent (G0)-phase cells, R132C IDH1 [8]: 24.0 ± 11.8%
Fraction of leukemic blast cells (CD45low/+ SSClow) in comparison to DMSO [9]: 0.7 ± 0.1 fold
Hypermethylated CpG loci ([10]; 3 μM, 6 days, vs controls): 10153
Hypomethylated CpG loci ([10]; 3 μM, 6 days, vs controls): 18668
Hypermethylated regions (DMRs) ([10]; 1kb tiles): 1157
Hypomethylated regions (DMRs) ([10]; 1kb tiles): 2075
Effect on histone H3K9me2 levels [11]: markedly decreased H3K9me2 levels
AMP (artificial membrane permeability) [12]: 32.4 ×10⁻⁶ cm/s
AMP permeability class [12]: high
Mechanism of action versus NADPH [13]: mixed vs NADPH
Mechanism of action versus αKG [13]: competitive vs αKG

COc1c(C)cc(NC(=O)c2nn(Cc3ccc(F)cc3)c3c2CN(C(=O)c2ccc[nH]2)C[C@]3(C)C(N)=O)cc1C [GSK864]
EC50 [14]: 0.32 µM
Percentage of blast cells (SSClow CD45low/+) in bone marrow ([5]; NSG mice, 150 mg/kg): significant decrease in the percentage of blast cells
huCD45+ CD38+ cells in bone marrow ([5]; R132C or R132H IDH1 mutant engrafted NSG mice, 150 mg/kg): slightly increased numbers of huCD45^+ CD38^+ cells
Blood concentrations after intraperitoneal administration [15]: significant concentrations of GSK864 were maintained

B1: IDH2(40-452)Flag wild type (enzyme, human, UniProt P48735 40-452, looked up)
chain: ADKRIKVAKPVVEMDGDEMTRIIWQFIKEKLILPHVDIQLKYFDLGLPNRDQTDDQVTIDSALATQKYSVAVKCATITPDEARVEEFKLKKMWKSPNGTIRNILGGTVFREPIICKNIPRLVPGWTKPITIGRHAHGDQYKATDFVADRAGTFKMVFTPKDGSGVKEWEVYNFPAGGVGMGMYNTDESISGFAHSCFQYAIQKKWPLYMSTKNTILKAYDGRFKDIFQEIFDKHYKTDFDKNKIWYEHRLIDDMVAQVLKSSGGFVWACKNYDGDVQSDILAQGFGSLGLMTSVLVCPDGKTIEAEAAHGTVTRHYREHQKGRPTSTNPIASIFAWTRGLEHRGKLDGNQDLIRFAQMLEKVCVETVESGAMTKDLAGCIHGLSNVKLNEHFLNTTDFLDTIKSNLDRALGRQ
binding result [16]: binds

B2: IDH2(40-452)Flag R140Q (enzyme, human, UniProt P48735 40-452, looked up)
chain: ADKRIKVAKPVVEMDGDEMTRIIWQFIKEKLILPHVDIQLKYFDLGLPNRDQTDDQVTIDSALATQKYSVAVKCATITPDEARVEEFKLKKMWKSPNGTIQNILGGTVFREPIICKNIPRLVPGWTKPITIGRHAHGDQYKATDFVADRAGTFKMVFTPKDGSGVKEWEVYNFPAGGVGMGMYNTDESISGFAHSCFQYAIQKKWPLYMSTKNTILKAYDGRFKDIFQEIFDKHYKTDFDKNKIWYEHRLIDDMVAQVLKSSGGFVWACKNYDGDVQSDILAQGFGSLGLMTSVLVCPDGKTIEAEAAHGTVTRHYREHQKGRPTSTNPIASIFAWTRGLEHRGKLDGNQDLIRFAQMLEKVCVETVESGAMTKDLAGCIHGLSNVKLNEHFLNTTDFLDTIKSNLDRALGRQ
binding result [16]: binds

B3: IDH2(40-452)Flag R172S (enzyme, human, UniProt P48735 40-452, looked up)
chain: ADKRIKVAKPVVEMDGDEMTRIIWQFIKEKLILPHVDIQLKYFDLGLPNRDQTDDQVTIDSALATQKYSVAVKCATITPDEARVEEFKLKKMWKSPNGTIRNILGGTVFREPIICKNIPRLVPGWTKPITIGSHAHGDQYKATDFVADRAGTFKMVFTPKDGSGVKEWEVYNFPAGGVGMGMYNTDESISGFAHSCFQYAIQKKWPLYMSTKNTILKAYDGRFKDIFQEIFDKHYKTDFDKNKIWYEHRLIDDMVAQVLKSSGGFVWACKNYDGDVQSDILAQGFGSLGLMTSVLVCPDGKTIEAEAAHGTVTRHYREHQKGRPTSTNPIASIFAWTRGLEHRGKLDGNQDLIRFAQMLEKVCVETVESGAMTKDLAGCIHGLSNVKLNEHFLNTTDFLDTIKSNLDRALGRQ
binding result [16]: binds

Source: article PMC5155016 (Nature chemical biology, 2015)
